{"source": "patent US20080193505A1", "about": "“Nutritional Compositions For Modulating Vitamin C Bio-Availability” (Nestec S.A., priority 2005, published 2008)", "key": {"SVCT1": {"test_system": "SVCT1", "experiment": "Real-time PCR in-vitro test of SVCT1 gene expression in primary keratinocytes", "format": "cell-based, human", "conditions": "for influence on expression: NHEK, 10 μM; for transcription of SVCT1 mRNA: summary statement in description", "procedure": "Confluent primary keratinocytes (NHEK) were treated with a test compound or subsequently used for reverse transcription and real-time PCR analysis of SVCT1 and SVCT2. 18S-rRNA and GAPDH mRNA analysis served as endogenous control (housekeeping genes).\nPrimary adult epidermal keratinocytes (NHEK) for Cambrex Company (USA, Ordering number: CC-2501) have been used in this study. They were grown in KGM medium (Cambrex Company, USA, Ordering number: CC-3101 and CC-4131) on fibronectin and collagen type I coated plastic dishes (6- or 12-well plates) at 37° C. and 5% CO2 and expanded until passage 4 where they were used for further experiments.\nNHEK cells at passage 4 were seated in 6 well plates at a density of 5000 cells/cm2, determined by means of a Thoma chamber under a light microscope. Cells were grown to 100% confluence within 5-6 days with medium changed every second day and were further used for in vitro-test for gene expression as depicted schematically in FIG. 1.\nAfter removal of the supernatant the cells were rinsed twice with Dubellco's phophate buffered saline (PBS, Sigma, Germany), cells were lysed with 350 μl of a lysis buffer (Buffer RL, Qiagen AG, Basel, Switzerland) containing 1% β-mercaptoethanol (Sigma, USA) and total RNAs from cell lysates were extracted using the QIAshredder column and the RNeasy® Mini Kit (Qiagen AG, Basel, Switzerland). RNA quantification was performed using the Ribogreen® RNA quantitation Kit (Molecular Probes, USA) on 96-well plates and a fluorescence microplate reader (Spectra fluor plus F 129005, Tecan). The measurements were done in duplicate. The samples were diluted either 1:680 or 1:3400 in a final volume of 100 μl 1×TE buffer. Dilutions of the ribosomal RNA in a concentration of 1, 0.5, 0.1, 0.02, 0 μg/ml were used as standards and the measurement was performed by fluorimetry at 485 nm and 538 nm. RNA quantification was then calculated compared to the standard curve. Integrity of RNA was controlled using agarose gel electrophoresis (1% agarose in TBE: 90 mM Tris/HCl pH 8.0, 80 mM Boric acid, 3 mM EDTA in ddH2O).\nFor reverse transciption 2 μl pd(N)6 random hexamers (Amersham Biosciences, Art. n° 272080, England) and 1 μl dNTP (10 mM, Amersham Biosciences, Art. n° 272050, −60, −70, −80, England) were added to 2 μg RNA in nuclease-free water (Ambion, USA) in a final volume of 12 μl. After 5 min incubation at 65° C., samples were immediately placed on ice and quickly centrifuged. Then, 4 μl of 5× first strand buffer (250 mM NaCl, 0.1 mM EDTA, 1 mM DTT, 0.1% (V/v) NP-40, 50% (v/v) glycerol), 2 μl of dithiothreitol, 1 μl of RNase inhibitor and 1 μl of reverse transcriptase SuperScript II RNase H^− (SUPERase-In, 20 U/μl, Ambion, Art. n° 2694, USA) were added (final volume 20 μl). […] The sample was then kept in the freezer at −20° C. until further use.\nThe real-time PCR was performed according to the TaqMane method in 96 well plates (96WP) using assays-on-demand primer and probes (SVCT1: Hs00195277_ml, SVCT2:, Hs00192765_ml, 18S-rRNA: 4310893E, GAPDH: 4310884E Applied Biosystems, USA). Analysis was done in triplicate using a master mix (3.5×) which contained 43.7 μl TaqMan® 2× Universal PCR master mix (Applied Biosystems, USA), 4.4 μl assays-on-demand primers and probes, 21.9 μl nuclease-free water and 17.5 μl cDNA (87.5 ng=[…] per replicate). Triplicates of 25 μl master mix were loaded on a 96 well ABI PRISM reaction plate (Applied Biosystems, USA), covered with a transparent optical adhesive cover and centrifuged three times at 200 rpm for 1 min or until all air-bubbles had been removed. The PCR reaction was then performed in the ABI PRISMS 7000 Sequence Detection System (Applied Biosystems, USA) using the following temperature program: activation of the enzyme: 2 min at 50° C.; denaturation: 10 min at 95° C. and 40 cycles target amplification: 15 sec […] at 95° C. and 1 min extension at 60° C."}, "HaCaT cells": {"test_system": "HaCaT cells", "experiment": "14C-labelled ascorbic acid up-take in HaCaT cells (oxidative stress model)", "format": "cell-based, human", "conditions": "for ascorbic acid up-take in the oxidative stress model: similar conditions as for FeCl3, data not shown"}}, "data": [{"compound": "Oc1ccc(C2COc3cc(O)ccc3C2)cc1", "note": "(racemic) [equol, (R,S)-equol]", "values": [{"measurement": "influence on expression", "setting": "SVCT1", "result": "did not show any influence"}]}, {"compound": "[Cl][Fe]([Cl])[Cl]", "note": "[FeCl3]", "values": [{"measurement": "Vitamin C uptake by the cell", "setting": "HaCaT cells; iron salt treated cells", "result": "enlarged"}]}, {"compound": "CC(=O)N[C@@H](CS)C(=O)O", "note": "[N-acetyl-cysteine]", "values": [{"measurement": "ascorbic acid up-take in the oxidative stress model", "setting": "HaCaT cells", "result": "increase ascorbic acid up-take"}]}, {"compound": "[Cl-].[Cl-].[Zn+2]", "note": "[ZnCl2]", "values": [{"measurement": "transcription of SVCT1 mRNA", "setting": "SVCT1", "result": "significantly down-regulated"}]}, {"compound": "CC1=C(/C=C/C(C)=C/C=C/C(C)=C/C(=O)O)C(C)(C)CCC1", "note": "[all-trans retinoic acid]", "values": [{"measurement": "transcription of SVCT1 mRNA", "setting": "SVCT1", "result": "significantly down-regulated"}]}, {"compound": "COc1cc(/C=C/C(=O)CC(=O)/C=C/c2ccc(O)c(OC)c2)ccc1O", "note": "[curcumin]", "values": [{"measurement": "influence on expression", "setting": "SVCT1", "result": "did not show any influence"}]}, {"compound": "O=c1c(-c2ccc(O)cc2)coc2cc(O)cc(O)c12", "note": "[genistein]", "values": [{"measurement": "influence on expression", "setting": "SVCT1", "result": "did not show any influence"}]}, {"compound": "N[C@@H](CCC(=O)N[C@@H](CS)C(=O)NCC(=O)O)C(=O)O", "note": "[glutathione]", "values": [{"measurement": "ascorbic acid up-take in the oxidative stress model", "setting": "HaCaT cells", "result": "increase ascorbic acid up-take"}]}, {"compound": "COc1ccc([C@@H]2CC(=O)c3c(O)cc(O)cc3O2)cc1O", "note": "[hesperetin/hesperidin, hesperetin]", "values": [{"measurement": "influence on expression", "setting": "SVCT1", "result": "did not show any influence"}]}, {"compound": "NCCCC[C@H](N)C(=O)O", "note": "[lysine]", "values": [{"measurement": "ascorbic acid up-take in the oxidative stress model", "setting": "HaCaT cells", "result": "increase ascorbic acid up-take"}]}, {"compound": "O=c1c(O)c(-c2ccc(O)c(O)c2)oc2cc(O)cc(O)c12", "note": "[quercitin, quercetin]", "values": [{"measurement": "influence on expression", "setting": "SVCT1", "result": "did not show any influence"}]}, {"compound": "C[S+]([O-])CCCCN=C=S", "note": "(stereo not shown) [sulforaphane]", "values": [{"measurement": "transcription of SVCT1 mRNA", "setting": "SVCT1", "result": "significantly down-regulated"}]}, {"compound": "(−) epigallocatechin gallate [(−) epigallocatechin gallate (EGCg)]", "values": [{"measurement": "influence on expression", "setting": "SVCT1", "result": "did not show any influence"}]}]}
